Structures are written as SMILES.

For one assay, the target named is T1, NS3 (West Nile virus) (UniProt K4FQI5).
T1 sequence (whole entry): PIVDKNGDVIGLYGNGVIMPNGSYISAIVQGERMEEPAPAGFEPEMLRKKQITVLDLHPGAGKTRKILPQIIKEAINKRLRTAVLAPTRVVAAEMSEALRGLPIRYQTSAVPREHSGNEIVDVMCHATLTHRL
Description: Functional biochemical assay to identify treatments for viral infectious disease that targets West Nile NS2B-NS3 protease. Utilizing a direct enzyme activity measurement method, reading the fluorescence intensity is used to characterize the relative potency of inhibitors as % inhibition. Synthetic construct has been made based on West Nile virus (strain NY-99) by Centre for Medicines Discovery, University of Oxford, and the assay has been performed by Weizmann Institute of Science.The protocol is publicly available: dx.doi.org/10.17504/protocols.io.q26g7yebkgwz/v3. The conditions noted are these: Concentration 50.0 uM, Number of replicates 2.0, Standard deviation 2.0262748168953313 %.
By inhibition is commonly meant the relative decrease from the control value, in per cent. As for `N=C(N)NCCC[C@H](NC(=O)c1nccs1)C(=O)N[C@@H](CCCCN)C(=O)N[C@@H](C(N)=O)c1ccc(OCc2ccc(C(F)(F)F)cc2)cc1`, the inhibition came out at 80.2%.

The same assay, now with this note: Concentration 50.0 uM, Number of replicates 2.0, Standard deviation 6.952329816266579 %.
Turning to `O=C1c2c(O)ccc([N+](=O)[O-])c2C(=O)c2c([N+](=O)[O-])ccc(O)c21`, the inhibition came out at 4.86%.

The assay is the same for the next values; noted with them: Concentration 100.0 uM, Number of replicates 2.0, Standard deviation 1.865400633304037 %.
As to `O=C1c2c(O)ccc([N+](=O)[O-])c2C(=O)c2c([N+](=O)[O-])ccc(O)c21`, the inhibition amounted to 22.8%.

Staying with this assay, now noted: Concentration 100.0 uM, Number of replicates 2.0, Standard deviation 12.945380917885936 %.
On to `N=C(N)NCCC[C@H](NC(=O)c1nccs1)C(=O)N[C@@H](CCCCN)C(=O)N[C@@H](C(N)=O)c1ccc(OCc2ccc(C(F)(F)F)cc2)cc1`, for which the inhibition amounted to 119%.

The target in another assay is T1, NS3 (West Nile virus). Description: Functional biochemical assay to identify treatments for viral infectious disease that targets West Nile NS2B-NS3 protease. Utilizing a direct enzyme activity measurement method, reading the fluorescence intensity is used to characterize the relative potency of inhibitors as % inhibition. Synthetic construct has been made based on West Nile virus (strain NY-99) by Centre for Medicines Discovery, University of Oxford, and the assay has been performed by Stanford University.The protocol is publicly available: dx.doi.org/10.17504/protocols.io.ewov1dy37vr2/v1. The conditions noted are these: Concentration 50.0 uM, Number of replicates 1.0.
In the case of `CN(C)c1ccc(C=C(C#N)C(N)=O)cc1`, the inhibition came out at 38.2%. On the same count and under the same terms, in the case of `O=Cc1ccc(N2CCC(C(=O)O)CC2)o1` it was 65.4%; in that of `O=Cc1ccc(N2CCCCC2)cc1`, 36.7%. The same measure, in the same setting: then `O=Cc1nc(-c2ccccc2Cl)n2ccccc12`, with 41%.

Take `Nc1ccc2ccc(B(O)O)cc2c1`: the inhibition was -5.6%.

Turning to `O=Cc1ccc(N2CCC(C(=O)O)CC2)cc1`, the inhibition was 69.5%. On the same count and under the same terms, then `Cc1nc(C=O)c2ccccn12`, with 33.8%. Still for that read-out and setting: in the case of `Cc1cc(NS(=O)(=O)c2ccc(S(=O)(=O)F)cc2)c[nH]c1=O` it was 14.8%; in that of `Cc1c(C=O)c2ccccn2c1C(=O)c1ccncc1`, 63.6%; in that of `Cc1c(C=O)c2ccccn2c1C#N`, 49.8%. Regarding `O=Cc1ccc(N2CCCCCC2)cc1`, the inhibition was found to be 57%. On to `CC[C@H]1CO[C@H](C)CN1c1ccc(C=O)cn1`, for which the inhibition is 61.8%.

The values are drawn from ChEMBL document CHEMBL5606459, “ASAP - WNV NS2B-NS3 protease fluorescence single point” (2024).
